Reference: ChEMBL document CHEMBL3826933, “Discovery of 7-(Prolinol-N-yl)-2-phenylamino-thiazolo[5,4-d]pyrimidines as Novel Non-Nucleoside Partial Agonists for the A2A Adenosine Receptor: Prediction from Molecular Modeling” (J Med Chem, 2016)
In brackets after ≈: the same amount, converted by molar mass.

Legend:
[1] = molecular target: T1, Adenosine receptor A2b (Homo sapiens, UniProt P29275); assay: Antagonist activity at recombinant human adenosine A2B receptor expressed in CHOK1 cell membrane assessed as inhibition of NECA-stimulated adenylyl cyclase activity incubated for 20 mins in presence of [alpha32P]ATP; assay type: functional, cell-based, CHO-K1
T1 sequence (P29275 whole entry): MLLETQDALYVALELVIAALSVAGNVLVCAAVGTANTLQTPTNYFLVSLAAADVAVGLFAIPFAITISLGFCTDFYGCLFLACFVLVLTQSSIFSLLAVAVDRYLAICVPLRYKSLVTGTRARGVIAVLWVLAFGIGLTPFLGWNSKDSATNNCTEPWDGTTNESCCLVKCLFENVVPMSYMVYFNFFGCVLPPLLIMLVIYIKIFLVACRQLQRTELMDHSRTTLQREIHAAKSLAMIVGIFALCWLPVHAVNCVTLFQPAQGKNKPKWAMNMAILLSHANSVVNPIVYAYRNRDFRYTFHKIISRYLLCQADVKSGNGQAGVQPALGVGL

[2] = molecular target: T2, Adenosine receptor A3 (Homo sapiens, UniProt P0DMS8); assay: biochemical
T2 sequence (P0DMS8 whole entry): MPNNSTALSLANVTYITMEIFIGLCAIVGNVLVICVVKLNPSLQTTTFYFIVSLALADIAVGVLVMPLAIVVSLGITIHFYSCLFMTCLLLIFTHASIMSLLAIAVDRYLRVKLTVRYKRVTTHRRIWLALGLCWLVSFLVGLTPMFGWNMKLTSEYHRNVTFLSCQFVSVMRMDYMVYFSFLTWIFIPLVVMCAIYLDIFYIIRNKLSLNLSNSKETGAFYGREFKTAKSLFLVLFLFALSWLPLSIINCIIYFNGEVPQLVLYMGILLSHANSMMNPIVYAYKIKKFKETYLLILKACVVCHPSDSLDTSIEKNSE
Description: Displacement of [3H]HEMADO from recombinant human adenosine A3 receptor expressed in CHO cell membrane after 3 hrs by microbeta scintillation counting method

[3] = molecular target: T3, Adenosine receptor A2a (Homo sapiens, UniProt P29274); assay: Displacement of [3H]NECA from recombinant human adenosine A2A receptor expressed in CHO cell membrane after 3 hrs by microbeta scintillation counting method; assay type: cell membranes
[4] = molecular target: T4, Adenosine receptor A1 (Homo sapiens, UniProt P30542); assay: Displacement of [3H]CCPA from recombinant human adenosine A1 receptor expressed in CHO cell membrane after 3 hrs by microbeta scintillation counting method; assay type: cell membranes
T4 sequence (P30542 whole entry): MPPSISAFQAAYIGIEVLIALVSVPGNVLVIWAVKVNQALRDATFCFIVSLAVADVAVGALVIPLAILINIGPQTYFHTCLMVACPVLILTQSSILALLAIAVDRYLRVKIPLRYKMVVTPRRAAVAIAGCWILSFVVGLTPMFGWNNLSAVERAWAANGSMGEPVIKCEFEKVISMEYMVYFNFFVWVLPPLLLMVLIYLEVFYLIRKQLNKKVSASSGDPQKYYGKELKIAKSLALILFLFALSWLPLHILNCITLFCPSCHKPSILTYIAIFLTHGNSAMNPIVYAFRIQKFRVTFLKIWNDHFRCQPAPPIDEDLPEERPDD

[5] = molecular target: T3, Adenosine receptor A2a; assay: Partial agonist activity at recombinant human adenosine A2A receptor expressed in CHOK1 cell membrane assessed as adenylyl cyclase activity at 100 uM incubated for 20 mins in presence of [alpha32P]ATP relative to NECA; assay type: functional, cell-based; details: CHO-K1
[6] = Thermodynamic equilibrium solubility of compound in water at 1 to 300 ug after overnight incubation by microplate reader analysis; assay type: physicochemical; details: read-out: Therm_solubility
[7] = test system: CHO; assay: Selectivity ratio of Ki for recombinant human adenosine A3 receptor expressed in CHO cell membrane to Ki for recombinant human adenosine A2A receptor expressed in CHO cell membrane; assay type: cell-based
[8] = test system: CHO; assay: Selectivity ratio of Ki for recombinant human adenosine A1 receptor expressed in CHO cell membrane to Ki for recombinant human adenosine A2A receptor expressed in CHO cell membrane; assay type: cell-based
[9] = molecular target: T3, Adenosine receptor A2a; assay: Partial agonist activity at recombinant human adenosine A2A receptor expressed in CHOK1 cell membrane assessed as adenylyl cyclase activity at 1 to 100 uM incubated for 20 mins in presence of [alpha32P]ATP relative to NECA; assay type: functional, cell-based; details: CHO-K1
[10] = Thermodynamic equilibrium solubility of compound in simulated gastric fluid at 1 to 300 ug after overnight incubation by microplate reader analysis; assay type: ADME; details: read-out: Therm_solubility
[11] = Thermodynamic equilibrium solubility of compound in phosphate buffered saline at 1 to 300 ug after overnight incubation by microplate reader analysis; assay type: physicochemical; details: read-out: Therm_solubility

T3 sequence (P29274 whole entry): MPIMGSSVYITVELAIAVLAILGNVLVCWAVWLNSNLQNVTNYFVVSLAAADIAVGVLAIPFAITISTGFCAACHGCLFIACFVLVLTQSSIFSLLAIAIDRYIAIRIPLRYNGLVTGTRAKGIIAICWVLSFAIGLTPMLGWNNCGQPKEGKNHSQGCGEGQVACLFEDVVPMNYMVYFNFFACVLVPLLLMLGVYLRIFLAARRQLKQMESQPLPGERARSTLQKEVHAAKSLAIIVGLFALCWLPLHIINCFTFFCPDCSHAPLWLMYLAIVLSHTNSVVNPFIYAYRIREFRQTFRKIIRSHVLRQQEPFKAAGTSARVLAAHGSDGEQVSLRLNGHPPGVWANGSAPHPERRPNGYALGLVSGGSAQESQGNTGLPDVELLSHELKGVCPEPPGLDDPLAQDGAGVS

Structure (SMILES) | Ki [1] [µM] | Ki [2] [µM] | Ki [3] [µM] | Ki [4] [µM] | Efficacy [5] [%] | solubility thermodynamic [6] [µg/mL] | Efficacy [9] [%] | solubility thermodynamic [10] [µg/mL] | solubility thermodynamic [11] [µg/mL] | Ratio Ki [7] | Ratio Ki [8]
OC[C@@H]1CCCN1c1ncnc2sc(Nc3cccc(Br)c3)nc12 | > 10 | 1.07 | 0.153 | 0.53 | 50 | 160 (≈ 0.394 mM) | – | – | – | 3 | 3
O=C(Nc1nc2c(Cl)ncnc2s1)c1ccccc1 | > 10 | 7.33 | 1.5 | 7.24 | – | – | – | – | – | – | –
Clc1ncnc2sc(Nc3ccccc3)nc12 | > 10 | 3.67 | 1.52 | > 100 | – | – | – | – | – | – | –
Cc1ccc(Nc2nc3c(Cl)ncnc3s2)cc1 | > 10 | 4.64 | 4.93 | > 100 | – | – | – | – | – | – | –
Clc1ncnc2sc(NCCN3CCOCC3)nc12 | > 10 | > 100 | > 100 | > 100 | – | – | – | – | – | – | –
Fc1cccc(F)c1Nc1nc2c(Cl)ncnc2s1 | > 10 | 17.2 | 8.11 | 17.8 | – | – | – | – | – | – | –
S=C(NCc1ccccc1)N(Cc1ccccc1)c1nc2c(Cl)ncnc2s1 | > 10 | – | 1.87 | > 30 | – | – | – | – | – | – | –
O=[N+]([O-])c1ccc(Nc2nc3c(Cl)ncnc3s2)cc1 | > 10 | 7.95 | > 30 | > 30 | – | – | – | – | – | – | –
OC[C@@H]1CCCN1c1ncnc2sc(Nc3c(F)cccc3F)nc12 | > 10 | 3.42 | 3.26 | 7.97 | 50 | – | – | – | – | – | –
CN(C)c1ncnc2sc(Nc3ccccc3)nc12 | > 10 | 1.28 | 1.27 | > 100 | – | – | – | – | – | – | –
COc1cc(Nc2nc3c(N4CCC[C@H]4CO)ncnc3s2)cc(OC)c1OC | > 10 | 1.46 | 0.33 | 0.974 | 50 | – | – | – | – | – | –
COc1ccc(Nc2nc3c(N4CCC[C@H]4CO)ncnc3s2)cc1 | > 10 | 0.594 | 1.11 | 0.713 | – | – | – | – | – | – | –
OC[C@@H]1CCCN1c1ncnc2sc(Nc3ccccc3)nc12 | > 10 | 0.978 | 0.2 | 0.555 | 50 | 4300 (≈ 13.1 mM) | – | 3500 (≈ 10.7 mM) | 4800 (≈ 14.7 mM) | 3 | 3
c1ccc(Nc2nc3c(N4CCC(N5CCCCC5)CC4)ncnc3s2)cc1 | > 10 | > 100 | > 100 | > 100 | – | – | – | – | – | – | –
COc1cc(Nc2nc3c(N4CCCC4)ncnc3s2)cc(OC)c1OC | > 10 | 1.28 | 0.102 | > 100 | – | – | 10 | – | – | 12 | > 100
CCN1CCN(c2ncnc3sc(Nc4ccccc4)nc23)CC1 | > 10 | > 30 | 8.39 | > 100 | – | – | – | – | – | – | –
COc1ccc(Nc2nc3c(Cl)ncnc3s2)cc1 | > 10 | 5.88 | 3.57 | 11.5 | – | – | – | – | – | – | –
CCN(CC)c1ncnc2sc(Nc3ccccc3)nc12 | > 10 | > 30 | 2.21 | > 100 | – | – | – | – | – | – | –
Clc1ncnc2sc(Nc3cccc(Br)c3)nc12 | > 10 | 3.9 | 2.96 | 12.6 | – | – | – | – | – | – | –
COc1cc(Nc2nc3c(Cl)ncnc3s2)cc(OC)c1OC | > 10 | 2.65 | 1.05 | > 100 | – | – | – | – | – | – | –

Further lines, with some results ahead:

Ki [1] [µM] | Ki [2] [µM] | Ki [3] [µM] | Ki [4] [µM] | Efficacy [5] [%] | solubility thermodynamic [6] [µg/mL] | Efficacy [9] [%] | solubility thermodynamic [10] [µg/mL] | solubility thermodynamic [11] [µg/mL] | Structure (SMILES) | Ratio Ki [7] | Ratio Ki [8]
> 10 | 18.3 | 13.2 | > 100 | – | – | – | – | – | Clc1ccc(Nc2nc3c(N4CCCCC4)ncnc3s2)cc1 | – | –
> 10 | > 10 | 9.09 | > 30 | – | – | – | – | – | c1ccc(Nc2nc3c(N4CCNCC4)ncnc3s2)cc1 | – | –
> 10 | 0.563 | 0.974 | > 100 | – | > 150 | 10 | – | – | Cc1ccc(Nc2nc3c(N4CCCC4)ncnc3s2)cc1 | – | –
> 10 | 3.89 | 11.2 | 16.5 | – | – | – | – | – | CCN(CC)c1ncnc2sc(Nc3ccc(Cl)cc3)nc12 | – | –
> 10 | 4.26 | 2.06 | > 100 | – | – | 10 | – | – | Clc1ccc(Nc2nc3c(N4CCCC4)ncnc3s2)cc1 | – | –
> 10 | 12.1 | 0.98 | > 30 | – | – | – | – | – | c1ccc(Nc2nc3c(N4CCCCC4)ncnc3s2)cc1 | – | –
> 10 | > 10 | > 100 | > 100 | – | – | – | – | – | CN(C)c1ncnc2sc(Nc3ccc(Cl)cc3)nc12 | – | –
> 10 | 4.46 | 0.333 | > 100 | – | – | – | – | – | c1ccc(Nc2nc3c(N4CCOCC4)ncnc3s2)cc1 | 13 | > 3000
> 10 | 8.63 | 0.351 | > 30 | – | – | 10 | – | – | c1ccc(Nc2nc3c(N4CCCC4)ncnc3s2)cc1 | – | –
> 10 | 4.94 | 2.69 | 25 | – | – | – | – | – | Clc1ccc(Nc2nc3c(Cl)ncnc3s2)cc1 | – | –
> 10 | > 10 | > 100 | > 100 | – | – | – | – | – | CN1CCN(c2ncnc3sc(Nc4ccc(Cl)cc4)nc23)CC1 | – | –
> 10 | 0.843 | 0.313 | 0.399 | 50 | – | – | – | – | Cc1ccc(Nc2nc3c(N4CCC[C@H]4CO)ncnc3s2)cc1 | – | –
> 10 | > 100 | 1.4 | > 100 | – | – | – | – | – | Clc1ccc(Nc2nc3c(N4CCOCC4)ncnc3s2)cc1 | – | –
> 10 | 0.934 | 0.466 | 0.629 | 50 | – | – | – | – | OC[C@@H]1CCCN1c1ncnc2sc(Nc3ccc(Cl)cc3)nc12 | – | –
> 10 | 1.29 | 0.245 | > 100 | – | > 150 | 10 | – | – | Brc1cccc(Nc2nc3c(N4CCCC4)ncnc3s2)c1 | – | –
> 10 | 4.31 | 2.84 | > 30 | – | – | – | – | – | CN1CCN(c2ncnc3sc(Nc4ccccc4)nc23)CC1 | – | –
> 10 | 3.63 | 3.18 | > 30 | – | – | – | – | – | O=[N+]([O-])c1ccc(Nc2nc3c(N4CCCC4)ncnc3s2)cc1 | – | –
> 10 | 3.19 | 2.26 | 2.31 | – | – | 10 | – | – | Fc1cccc(F)c1Nc1nc2c(N3CCCC3)ncnc2s1 | – | –
